Data set [1] in a line: hydrolysis in aqueous solution. The data set is classed as physicochemical. The settings on record: elimination of maleic acid, C45 H78 N4 O24 formed.
Another data set addresses T1, E-Selectin (Homo sapiens, UniProt P16581).
T1 sequence (P16581 22-556): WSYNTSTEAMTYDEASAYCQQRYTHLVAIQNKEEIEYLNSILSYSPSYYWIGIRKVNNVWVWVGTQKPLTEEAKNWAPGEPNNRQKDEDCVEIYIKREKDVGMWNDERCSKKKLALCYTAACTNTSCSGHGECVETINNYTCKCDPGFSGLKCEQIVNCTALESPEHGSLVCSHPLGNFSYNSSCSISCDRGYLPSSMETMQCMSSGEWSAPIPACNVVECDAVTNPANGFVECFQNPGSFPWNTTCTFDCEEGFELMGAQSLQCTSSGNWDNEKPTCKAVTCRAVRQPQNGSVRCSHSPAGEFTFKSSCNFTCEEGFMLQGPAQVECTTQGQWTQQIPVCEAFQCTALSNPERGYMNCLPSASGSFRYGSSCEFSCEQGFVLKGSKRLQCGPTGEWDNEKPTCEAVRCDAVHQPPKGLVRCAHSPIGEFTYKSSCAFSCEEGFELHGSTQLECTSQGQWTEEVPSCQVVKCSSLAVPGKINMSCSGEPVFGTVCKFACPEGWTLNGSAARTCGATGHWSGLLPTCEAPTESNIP
The data set can be described thus: Inhibition of HL60 cell adhesion to soluble, recombinant E-selectin (E-selectin-IgG1 fusion protein). The data set is classed as cell-based. An excerpt:
(§1) Carrying out these assays to measure the inhibitory activity of the compounds according to the invention on cell adhesion of promyelocytic cells by means of selecting is described in detail in European Published Application EP 0 601 417.
(§2) In order to test the efficacy of the carbohydrate conjugates on the interaction between the E- and P-selectins (former nomenclature ELAM-1 or GMP-140) with their ligands, an assay is used which in each case is specific only for one of these interactions. The ligands are supplied in their natural form as surface structures on promyelocytic HL60 cells. Since HL60 cells contain ligands and adhesion molecules of very different specificity, the desired specificity of the assay can only be produced by means of the binding component. The binding components used were genetically prepared soluble fusion proteins from the in each case extracytoplasmatic domains of E- or P-selectin and the constant region of a human immunoglobulin of the IgG1 subclass.
Preparation of L-selectin-IgG1
For the preparation of soluble L-selectin-IgG1 fusion protein, the genetic construct "ELAM-Rg" published by Walz et al., 1990 was used.
For expression, the plasmid DNA was transfected in COS-7 cells (ATCC) by means of DEAE-dextran (Molecular Biology Methods: see Ausubel, F. M., Brent, R., Kingston, R. E., Moore, D. D., Seidman, J. G., Struhl, K. and Smith, J. A. 1990. Current Protocols in Molecular Biology, John Wiley, New York). Seven days after transfection, the culture supernatant is recovered, freed from cells and cell fragments by centrifugation and transferred to 25 mM HEPES pH 7.0, 0.3 mM PMSF, 0.02% sodium azide and stored at +4° C.
(§3) 1. 96-well microtiter test plates (Nunc Maxisorb) are incubated at room temperature for 2 hours with 100 μl of a goat anti-human IgG antibody (Sigma) diluted (1+100) in 50 mM Tris pH 9.5. After removing the antibody solution washing is carried out once with PBS.
(§4) 2. 150 μl of the blocking buffer are left in the wells at room temperature for 1 hour. The composition of the blocking buffer is: 0.1% gelatin, 1% BSA, 5% calf serum, 0.2 mM PMSF, 0.02% sodium azide. After removing the blocking buffer washing is carried out once with PBS.
(§5) 3. 100 μl each of cell culture supernatant of appropriately transfected and expressing COS cells are pipetted into the wells. Incubation is carried out at room temperature for 2 hours. After removing the cell culture supernatant washing is carried out once with PBS.
(§6) 4. 20 μl of binding buffer are added to the wells. The binding buffer has the composition: 50 mM HEPES, pH 7.5; 100 mM NaCl; 1 mg/ml BSA; 2 mM MgCl2; 1 mM CaCl2; 3 mM MnCl2; 0.02% sodium azide; 0.2 mM PMSF. 5 μl of the test substance are pipetted into this, mixed by swirling the plate and incubated at room temperature for 10 minutes.
(§7) 5. 50 ml of an HL60 cell culture containing 200,000 cells/ml are centrifuged at 350 g for 4 minutes. The pellet is resuspended in 10 ml of RPMI 1640 and the cells are centrifuged again. For labeling the cells, 50 μg of BCECF-AM (Molecular Probes) are dissolved in 5 μl of anhydrous DMSO; 1.5 ml of RPMI 1640 are then added to the BCECF-AM/DMSO solution. The cells are resuspended using this solution and incubated at 37° C. for 30 minutes. After centrifugation at 350 g for 2 minutes, the labeled cell pellet is resuspended in 11 ml of binding buffer and the resuspended cells are distributed into the microtiter plate wells in 100 μl aliquots. The plate is allowed to stand at room temperature for 10 minutes in order to allow the cells to sediment on the bottom of the test plate. In the course of this, the cells have the opportunity to adhere to the coated plastic.
(§8) 6. To stop the test, the microtiter plate is immersed completely in the stop buffer (25 mM tris, pH 7.5; 125 mM NaCl; 0.1% BSA; 2 mM MgCl2; 1 mM CaCl2; 3 mM MnCl2; 0.02% sodium azide) at an angle of 45°. The stop buffer is removed from the wells by inversion and the procedure is repeated a further two times.

The next data set concerns the target T2, P-Selectin (Homo sapiens, UniProt P16109).
T2 sequence (P16109 42-771): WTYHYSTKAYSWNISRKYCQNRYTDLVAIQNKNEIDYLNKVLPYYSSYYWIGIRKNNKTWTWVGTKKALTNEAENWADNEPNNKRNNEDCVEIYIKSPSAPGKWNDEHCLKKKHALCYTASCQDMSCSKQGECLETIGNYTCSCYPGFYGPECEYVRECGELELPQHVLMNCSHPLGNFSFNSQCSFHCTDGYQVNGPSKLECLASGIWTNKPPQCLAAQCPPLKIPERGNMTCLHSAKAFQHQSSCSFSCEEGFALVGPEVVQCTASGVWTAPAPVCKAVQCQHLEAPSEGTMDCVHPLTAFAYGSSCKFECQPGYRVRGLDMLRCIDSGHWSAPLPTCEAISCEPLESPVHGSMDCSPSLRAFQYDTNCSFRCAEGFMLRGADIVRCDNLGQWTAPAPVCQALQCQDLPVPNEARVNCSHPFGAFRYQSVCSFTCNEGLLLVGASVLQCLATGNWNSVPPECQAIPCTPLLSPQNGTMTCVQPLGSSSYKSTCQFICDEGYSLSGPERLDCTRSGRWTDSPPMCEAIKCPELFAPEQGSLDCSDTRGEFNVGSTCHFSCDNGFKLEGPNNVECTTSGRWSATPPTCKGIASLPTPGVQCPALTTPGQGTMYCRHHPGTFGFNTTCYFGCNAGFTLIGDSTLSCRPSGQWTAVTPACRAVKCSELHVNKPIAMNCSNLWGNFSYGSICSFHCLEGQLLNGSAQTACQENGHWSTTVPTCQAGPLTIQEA
The data set can be described thus: Inhibition of HL60 cell adhesion to soluble, recombinant P-selectin (P-selectin-IgG1 fusion protein). The data set is classed as cell-based.
Description: as §1, §2
Preparation of P-selectin-IgG1
For preparation of the soluble P-selectin-IgG1 fusion protein, the genetic construct "ICD62Rg" published by Aruffo et al., 1991 is used. The further procedure corresponds to the preparation of L-selectin-IgG1 presented under A1.
as §3, §4, §5, §6, §7, §8
7. Measurement of the BCECF-AM-labeled cells firmly adhering to the wells is carried out in a cytofluorimeter (Millipore) at a sensitivity setting of 4, an excitation wavelength of 485/220 nm and an emission wavelength of 530/250 nm.

Data set [2] deals with P-selectin-dependent lung injuries. The settings on record: animal experiments; cited from earlier work.
Data set [3] deals with myocardial reperfusion injuries. The settings on record: animal experiments; cited from earlier work.
The subject of the next data set is selectin receptors. The data set can be described thus: binding to selectin receptors, statements in words.
Where [4] appears, read: read-out: IC50 E-Selectin, inhibition of HL60 cell adhesion to soluble, recombinant adhesion molecules.
Setting [5] is: read-out: IC50 P-Selectin, inhibition of HL60 cell adhesion to soluble, recombinant adhesion molecules.
Setting [6] is: inhibition of HL60 cell adhesion to soluble, recombinant adhesion molecules, read-out: IC50 E-Selectin.
Setting [7] is: inhibition of HL60 cell adhesion to soluble, recombinant adhesion molecules, read-out: IC50 P-Selectin.

Where two headings read alike, the source gives them in different places.

The IC50 is the concentration needed to halve the response being measured.

On to `CC(=O)N[C@H]1[C@H](OCCCCCCNC(=O)C2CCC(CNC(=O)/C=C\C(=O)O)CC2)O[C@H](CO)[C@@H](O[C@@H]2O[C@H](CO)[C@H](O)[C@H](O[C@]3(C(=O)O)C[C@H](O)[C@@H](NC(C)=O)[C@H]([C@H](O)[C@H](O)CO)O3)[C@H]2O)[C@@H]1O[C@@H]1O[C@@H](C)[C@@H](O)[C@@H](O)[C@@H]1O` (some centres unmarked), for which the “hydrolysis in aqueous solution” value in data set [1] is recorded as “slowly hydrolyzes further in aqueous solution”.

As for `CC(=O)N[C@H]1[C@H](OCCCCCCNC(=O)CCCCCNC(=O)CCC(CCC(=O)NCCCCCC(=O)NCCCCCCO[C@@H]2O[C@H](CO)[C@@H](O[C@@H]3O[C@H](CO)[C@H](O)[C@H](O[C@]4(C(=O)O)C[C@H](O)[C@@H](NC(C)=O)[C@H]([C@H](O)[C@H](O)CO)O4)[C@H]3O)[C@H](O[C@@H]3O[C@@H](C)[C@@H](O)[C@@H](O)[C@@H]3O)[C@H]2NC(C)=O)(CCC(=O)NCCCCCC(=O)NCCCCCCO[C@@H]2O[C@H](CO)[C@@H](O[C@@H]3O[C@H](CO)[C@H](O)[C@H](O[C@]4(C(=O)O)C[C@H](O)[C@@H](NC(C)=O)[C@H]([C@H](O)[C@H](O)CO)O4)[C@H]3O)[C@H](O[C@@H]3O[C@@H](C)[C@@H](O)[C@@H](O)[C@@H]3O)[C@H]2NC(C)=O)[N+](=O)[O-])O[C@H](CO)[C@@H](O[C@@H]2O[C@H](CO)[C@H](O)[C@H](O[C@]3(C(=O)O)C[C@H](O)[C@@H](NC(C)=O)[C@H]([C@H](O)[C@H](O)CO)O3)[C@H]2O)[C@@H]1O[C@@H]1O[C@@H](C)[C@@H](O)[C@@H](O)[C@@H]1O` [II-3], the IC50 was 400 µM on E-Selectin (setting [4]) and greater than 1000 µM at P-Selectin (setting [5]).

Take `CC(=O)N[C@H]1[C@H](OCCCCCCNC(=O)CCC(CCC(=O)NCCCCCCO[C@@H]2O[C@H](CO)[C@@H](O[C@@H]3O[C@H](CO)[C@H](O)[C@H](O[C@]4(C(=O)O)C[C@H](O)[C@@H](NC(C)=O)[C@H]([C@H](O)[C@H](O)CO)O4)[C@H]3O)[C@H](O[C@@H]3O[C@@H](C)[C@@H](O)[C@@H](O)[C@@H]3O)[C@H]2NC(C)=O)(CCC(=O)NCCCCCCO[C@@H]2O[C@H](CO)[C@@H](O[C@@H]3O[C@H](CO)[C@H](O)[C@H](O[C@]4(C(=O)O)C[C@H](O)[C@@H](NC(C)=O)[C@H]([C@H](O)[C@H](O)CO)O4)[C@H]3O)[C@H](O[C@@H]3O[C@@H](C)[C@@H](O)[C@@H](O)[C@@H]3O)[C@H]2NC(C)=O)[N+](=O)[O-])O[C@H](CO)[C@@H](O[C@@H]2O[C@H](CO)[C@H](O)[C@H](O[C@]3(C(=O)O)C[C@H](O)[C@@H](NC(C)=O)[C@H]([C@H](O)[C@H](O)CO)O3)[C@H]2O)[C@@H]1O[C@@H]1O[C@@H](C)[C@@H](O)[C@@H](O)[C@@H]1O` [II-2]: the half-inhibitory concentration (IC50) at E-Selectin (setting [4]) is 130 µM; at P-Selectin (setting [5]), 140 µM.

For `CSCC[C@H](NC=O)C(=O)N[C@@H](CC(C)C)C(=O)N[C@@H](Cc1ccccc1)C(=O)NCCCCCCO[C@@H]1O[C@H](CO)[C@@H](O[C@@H]2O[C@H](CO)[C@H](O)[C@H](O[C@]3(C(=O)O)C[C@H](O)[C@@H](NC(C)=O)[C@H]([C@H](O)[C@H](O)CO)O3)[C@H]2O)[C@H](O[C@@H]2O[C@@H](C)[C@@H](O)[C@@H](O)[C@@H]2O)[C@H]1NC(C)=O` [Compound I-12], the concentration for half-maximal inhibition (IC50) at E-Selectin (setting [6]) and on P-Selectin (setting [7]) was greater than 800 µM each time.

Take `CC(=O)N[C@H]1[C@H](OCCCCCCNC(=O)CCSSc2ccccn2)O[C@H](CO)[C@@H](O[C@@H]2O[C@H](CO)[C@H](O)[C@H](O[C@]3(C(=O)O)C[C@H](O)[C@@H](NC(C)=O)[C@H]([C@H](O)[C@H](O)CO)O3)[C@H]2O)[C@@H]1O[C@@H]1O[C@@H](C)[C@@H](O)[C@@H](O)[C@@H]1O` [Compound I-10]: the results for the 50% inhibitory concentration (IC50) on E-Selectin (setting [6]) and at P-Selectin (setting [7]) were 390 µM and 400 µM, respectively.

`CC(=O)N[C@@H]1[C@@H](O[C@@H]2O[C@@H](C)[C@@H](O)[C@@H](O)[C@@H]2O)[C@H](O[C@@H]2O[C@H](CO)[C@H](O)[C@H](O[C@]3(C(=O)O)C[C@H](O)[C@@H](NC(C)=O)[C@H]([C@H](O)[C@H](O)CO)O3)[C@H]2O)[C@@H](CO)O[C@H]1NC(=O)[C@H](C)NC(=O)[C@H](CC(=O)O)NC(=O)CNC(=O)[C@@H](N)CCCNC(=N)N` [Compound I-2]: the results for the IC50 on E-Selectin and on P-Selectin were greater than 800 µM and 10 µM, respectively.

As to `CC(=O)N[C@@H]1[C@@H](O[C@@H]2O[C@@H](C)[C@@H](O)[C@@H](O)[C@@H]2O)[C@H](O[C@@H]2O[C@H](CO)[C@H](O)[C@H](O[C@]3(C(=O)O)C[C@H](O)[C@@H](NC(C)=O)[C@H]([C@H](O)[C@H](O)CO)O3)[C@H]2O)[C@@H](CO)O[C@H]1O` [SLeX], the “use in P-selectin-dependent lung injuries” value in data set [2] is on record as “successfully used”. Further, in data set [3], the “use in myocardial reperfusion injuries” value was “successfully used”.

On to “Arg-Gly-Asp-Ala (RGDA; printed: Arg-Gly-Asp-Ala)”, for which, in the data set on selectin receptors, the “binding of the peptide on its own to selectins” value is given as “does not bind”.

Source of the values: patent US5858994A, “Carbohydrate conjugates as inhibitors of cell adhesion” (priority 1994, dated 1999).
